# Test results published in US20050221381A1, “Method for isolating ligands” (priority 2002, published 2005).
# “Also recorded” adds a separate entry of the source. Like-named read-outs stand apart in the source and are kept apart here.
# What was measured:
# DRB1*1101 = DRB1*1101 (Homo sapiens, UniProt P01903+P01911, A100R/A169T/A87E/I96F/K41T/L162R/M171V/P40S/Q125H/Q178H/Q39Y/Q99D/R42S/S66Y/T262R/V115G/W38E); test: Peptide-competition assay with biotinylated CLIP peptide (ELISA); type: binding; design: key: −: no binding/T cell response; +/−: weak binding/T cell response; +: intermediate binding/T cell response; ++: strong binding/T cell response; conditions: for Binding to DRB1*1101: longer peptides no. 1500-1505, peptide-competition assay
# Protocol: (§1) The binding affinities to DRB1*0701 and DRB1*1101 were tested by a peptide-competition assay (Reay et al., 1992). Briefly, binding of the biotinylated CLIP peptide (reference peptide) has been used for monitoring of HLA:peptide complex formation. […] In the case of lower affinity peptides they should be added in excess to the reference peptide to compete for occupancy of HLA binding grove. […] Alternatively, comparing of the amount of reference peptide bound to HLA molecules in the presence or absence of competitor peptide one can determine the binding activity of the peptide of interest.
# (§2) In the present peptide-competition assay conditions of peptide binding were similar to described above. Soluble HLA molecules were used in the concentration of 0.5 μM and biotinylated CLIP was added to all samples in the final concentration of 2 μM. Competitor peptides were added in three different concentrations: 0.25, 5 and 100 μM. Binding reaction was performed in PBS buffer (pH 7.4) for 18 hours at 37° C. […] Briefly, MaxiSorb 96-well plates (Nunc, Denmark) were coated with mouse anti-αβ antibody L243 (purified from ATCC HB-55) by overnight incubation with 50 μl of 10 μg/ml dilution in PBS at 4° C. Non-specific binding to the plastic was blocked by incubation with T-PBS containing 3% of BSA for 2 hours at 37° C. and binding reactions were then “captured” for 2 hours at room temperature. […] The optical density at 405 nm was measured on a microplate reader SUNRISE (Tecan).
# DRB1*0701 = DRB1*0701 (Homo sapiens, UniProt P01903+P01911, A100R/A102G/A103Q/D57E/D86V/E43K/F76Y/K127E/L162R/M171V/P40G/Q125H/Q99D/R33Q/R42Y/R54Q/S133A/S66F/T210M/V115G/Y107V/Y59L/Y89S); test: as above; type: binding; design: key: −: no binding/T cell response; +/−: weak binding/T cell response; +: intermediate binding/T cell response; ++: strong binding/T cell response
# Protocol: as §1, §2
# [1] = target: T1, soluble DRB1*0401 molecules (DR4) (Homo sapiens, UniProt P01903+P01911, A100K/A169T/F76Y/I96L/K127E/L162R/M171V/N62H/P40V/Q125Y/R42H/S133A/S149N/S66Y/V115G/V209L/W38E); type: binding; design: key to DR4 binding: +++: high binding affinity; ++: moderate binding affinity; +: low binding affinity; −: no binding; key to Binding to DRB1 *0401: −: no binding/T cell response; +/−: weak binding/T cell response; +: intermediate binding/T cell response; ++: strong binding/T cell response; conditions: for Binding to soluble DRB1*0401 molecules (in words): SDS-stability assay
# T1 construct: Soluble HLA class I A*0201 and HLA class II DRA1*0101/DRB1*0101/Ii, DRA1*0101/DRB1*0401/Ii and DRA1*0101/DRB1*0404/Ii molecules were expressed in SC-2 cells; made in house; host or cells: SC-2 cells
# [2] = target: T1, soluble DRB1*0401 molecules (DR4); type: binding; design: key: −: no binding/T cell response; +/−: weak binding/T cell response; +: intermediate binding/T cell response; ++: strong binding/T cell response
# [3] = system: HLA-DRB1*0401-transgenic mice splenocytes; type: in vivo, mouse; design: key to DRB1*0401 mice total SC (T cell response) / DRB1*0401 mice CD4+ (T cell response): −: no binding/T cell response; +/−: weak binding/T cell response; +: intermediate binding/T cell response; ++: strong binding/T cell response; conditions: for Immunogenicity in DRB1*0401-transgenic mice (in words): INF-gamma ELISpot (FIG. 12)
# [4] = target: T2, soluble DRB1*0101 molecules (Homo sapiens, UniProt P01903+P01911, A100R/D57E/F55L/F60I/F76Y/I96L/L162R/M171V/P40L/Q125E/R42F/V115G/Y59C); test: Peptide binding assay, SDS-stability assay; design: key: −: no binding/T cell response; +/−: weak binding/T cell response; +: intermediate binding/T cell response; ++: strong binding/T cell response
# T2 construct: Soluble HLA class I A*0201 and HLA class II DRA1*0101/DRB1*0101/Ii, DRA1*0101/DRB1*0401/Ii and DRA1*0101/DRB1*0404/Ii molecules were expressed in SC-2 cells; made in house; host or cells: SC-2 cells
# [5] = target: T3, soluble DRB1*0404 molecules (Homo sapiens, UniProt P01903+P01911, A100R/A169T/F76Y/I96L/K127E/L162R/M171V/N62H/P40V/Q125Y/R42H/S133A/S149N/S66Y/V209L/W38E); test: Peptide binding assay, SDS-stability assay; design: key: −: no binding/T cell response; +/−: weak binding/T cell response; +: intermediate binding/T cell response; ++: strong binding/T cell response
# T3 construct: Soluble HLA class I A*0201 and HLA class II DRA1*0101/DRB1*0101/Ii, DRA1*0101/DRB1*0401/Ii and DRA1*0101/DRB1*0404/Ii molecules were expressed in SC-2 cells; made in house; host or cells: SC-2 cells
# [6] = target: T4, soluble DRB1*0401 molecules (Homo sapiens, UniProt P01903+P01911, A100K/A169T/F76Y/I96L/K127E/L162R/M171V/N62H/P40V/Q125Y/R42H/S133A/S149N/S66Y/V115G/V209L/W38E); test: Epitope capture from peptide mixtures, gel filtration and MALDI-TOF MS of bound peptides; type: binding
# T4 construct: Soluble HLA class I A*0201 and HLA class II DRA1*0101/DRB1*0101/Ii, DRA1*0101/DRB1*0401/Ii and DRA1*0101/DRB1*0404/Ii molecules were expressed in SC-2 cells; made in house; host or cells: SC-2 cells
# Excerpt: After peptide binding reaction with soluble HLA molecules, HLA-peptide complexes were separated from free peptides by gel-filtration chromatography on Superdex-200 column (AKTAdesign, Amersham Pharmacia Biotech). HLA-containing fractions were collected, and bound peptides were reconstituted from the complexes by adding TFA to the final concentration of 1%. Peptides were desolted by Ziptip purification and analyzed by MALDI-TOF mass-spectrometry.
# Second, the ability to capture peptides binding to HLA class II molecules from the mixture of two high affinity ligands was tested. The binding reaction contained 1 μM of soluble DRB1*0401 molecules and 5 μM of each YAR and 1242 peptide. After the HLA-peptide complexes were formed, they were separated from the excess of free peptides by gel filtration chromatography. Fractions containing MHC molecules were collected. Bound peptides were eluted from the complexes and analyzed by mass-spectrometry.
# Third, it was investigated if the binding capacity of the high affinity ligand would be influenced by the excess of low affinity peptide. […] Peptide binding was assessed by SDS-stability assay and verified by MS analysis (FIG. 3).
# The final concentration of each peptide in binding reaction was 5 μM, except 1236 added in 55 μM, meaning that the concentration of each individual binding peptide was 20-fold lower than final concentration of all peptides. DRB1*0401 molecules were added to 1 μM. The formation of MHC-peptide complexes was evaluated as described above, using single peptides as controls (FIG. 4). […] The result of this analysis yielded the two peptides with highest binding affinities: 1242 and YAR (see Table 1). The peptides with moderate and/or low affinities were not found in the complexes, probably due to the high concentration of strong competitors used in this assay.
# [7] = longer peptides no. 1500-1505, peptide-competition assay
# [8] = CD4+ fraction of splenocytes, IFN-γ ELISpot
# [9] = IFN-gamma ELISpot, enriched CD4+ fraction of splenocytes of HLA-DR4 transgenic mice vaccinated with the longer peptide, ex vivo re-stimulation
# [10] = IFN-gamma ELISpot, total splenocytes of HLA-DR4 transgenic mice vaccinated with the longer peptide, ex vivo re-stimulation
# [11] = total splenocytes, ex vivo restimulation, IFN-γ ELISpot
Sequence,Binding to DRB1 1101 (DRB1*1101),Binding to DRB1*1101 (DRB1*1101),Binding to DRB1 *0701 (DRB1*0701; DRB1*0701),Binding to DRB1 *0701 (DRB1*0701; [7]),Binding to DRB1 *0401 ([1]; soluble DRB1*0401 molecules),Binding to DRB1*0401 ([2]; longer peptides no. 1500-1505),"DRB1*0401 mice CD4+ (T cell response) [3, 8]","DRB1*0401 mice CD4+ (T cell response) [3, 9]","DRB1*0401 mice total SC (T cell response) [3, 10]","DRB1*0401 mice total SC (T cell response) [3, 11]",Binding to DRB1*0101 ([4]; longer peptides no. 1500-1505),Binding to DRB1*0101 ([4]; soluble DRB1*0101 molecules),Binding to DRB1*0404 ([5]; longer peptides no. 1500-1505),Binding to DRB1*0404 ([5]; soluble DRB1*0404 molecules),other results
QGQNLKYQEFFWDANDIYRIF [Peptide 1505],−,−,−,−,+,+/−,++,++,++,++,−,−,−,−,Binding to soluble DRB1*0401 molecules (in words) [1]: not so good in binding assay; Immunogenicity in DRB1*0401-transgenic mice (in words) ([3]; total splenocytes): highest frequency of T cells
LLQRGPQYSEHPTFTSQYRIQG [Peptide 1502],++,++,−,−,,,,,,,−,−,−,−,"Binding to DRB1 *0401 [1]: +; Binding to DRB1*0401 [2]: +; CD4+ / CD8+ response of separated splenocytes ([3]; mouse, in vivo): simultaneous CD4+ and CD8+ response; DRB1*0401 mice CD4+ (T cell response) ([3]; mouse, in vivo): ++; DRB1*0401 mice total SC (T cell response) ([3]; mouse, in vivo, sc): + and ++"
YARFQSQTTLKQKT [reference compound],,,,,,,,,,,,,,,"DR4 binding [1]: +++; Peptides captured from pool of 10 peptides, MS analysis ([6]; each peptide 5 μM, 1236 55 μM, DRB1*0401 1 μM): captured by DR4 molecules; Peptides found in complexes with MHC molecules by MS ([6]; mixture of two ligands, 5 μM each, 1 μM DRB1*0401): revealed in the complexes with MHC molecules"
PSLILVSQYTPDSTPCHRGDNQLQVQHTR [Peptide 1500],−,−,−,−,++,++,+,+,+,+,+,+,++,++,
QWKEPDVYYTSAFVFPTKDVALR [Peptide 1501],+,+/−,−,−,+,+,+,+,+,+,++,++,−,−,
TSGVMTRGRLKAESTVAPEEDTDE [Peptide 1504],+,+,−,−,+,+,++,++,+,+,+,+,,++,
YRHTWDRHDEGAAQGDDDVW [Peptide 1503],−,−,−,−,+/−,+/−,−,−,−,−,−,−,−,−,Binding to soluble DRB1*0401 molecules (in words) [1]: weak affinity; Immunogenicity in DRB1*0401-transgenic mice (in words) ([3]; total splenocytes): did not induce immune response; also recorded: not immunogenic
